Experimental data taken from PubChem BioAssay (NCI).
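In this assay, cells in 96-well plates receive the compound at five concentrations for 48 hours. Endpoints are linearly interpolated between the surrounding concentrations. TGI marks complete inhibition of growth.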

Assays:
Test in all cases: NCI-60 cell line screen, 48 h
UACC-257 melanoma = test system: UACC-257 melanoma
OVCAR-4 ovarian = test system: OVCAR-4 ovarian
SK-MEL-5 melanoma = test system: SK-MEL-5 melanoma
IGROV1 ovarian = test system: IGROV1 ovarian
HOP-62 NSCLC = test system: HOP-62 NSCLC
CCRF-CEM leukemia = test system: CCRF-CEM leukemia
NCI-H460 lung = test system: NCI-H460 lung
NCI-H23 lung = test system: NCI-H23 lung
HCT-116 colon = test system: HCT-116 colon
DMS 114 small cell lung = test system: DMS 114 small cell lung
786-0 renal = test system: 786-0 renal
U251 CNS = test system: U251 CNS
A549 NSCLC = test system: A549 NSCLC
KM12 colon = test system: KM12 colon
HL-60(TB) leukemia = test system: HL-60(TB) leukemia
K-562 leukemia = test system: K-562 leukemia
COLO 205 colon = test system: COLO 205 colon
TK-10 renal = test system: TK-10 renal
M19-MEL melanoma = test system: M19-MEL melanoma
HOP-92 NSCLC = test system: HOP-92 NSCLC
SNB-19 CNS = test system: SNB-19 CNS
DLD-1 colon = test system: DLD-1 colon
CAKI-1 renal = test system: CAKI-1 renal
LXFL 529 NSCLC = test system: LXFL 529 NSCLC
SNB-78 CNS = test system: SNB-78 CNS
SW-620 colon = test system: SW-620 colon
KM20L2 colon = test system: KM20L2 colon
SF-268 CNS = test system: SF-268 CNS
EKVX NSCLC = test system: EKVX NSCLC
OVCAR-5 ovarian = test system: OVCAR-5 ovarian
RXF 393 renal = test system: RXF 393 renal
HOP-18 NSCLC = test system: HOP-18 NSCLC
HCC-2998 colon = test system: HCC-2998 colon
NCI-H226 lung = test system: NCI-H226 lung
OVCAR-8 ovarian = test system: OVCAR-8 ovarian
A498 renal = test system: A498 renal
UACC-62 melanoma = test system: UACC-62 melanoma
SK-OV-3 ovarian = test system: SK-OV-3 ovarian
M14 melanoma = test system: M14 melanoma
NCI-H522 lung = test system: NCI-H522 lung
MALME-3M melanoma = test system: MALME-3M melanoma
UO-31 renal = test system: UO-31 renal
RXF-631 renal = test system: RXF-631 renal
SK-MEL-2 melanoma = test system: SK-MEL-2 melanoma
HCT-15 colon = test system: HCT-15 colon
LOX IMVI melanoma = test system: LOX IMVI melanoma
SF-295 CNS = test system: SF-295 CNS
SNB-75 CNS = test system: SNB-75 CNS
DMS 273 small cell lung = test system: DMS 273 small cell lung
HT29 colon = test system: HT29 colon
SF-539 CNS = test system: SF-539 CNS
RPMI-8226 leukemia = test system: RPMI-8226 leukemia
OVCAR-3 ovarian = test system: OVCAR-3 ovarian
SK-MEL-28 melanoma = test system: SK-MEL-28 melanoma
ACHN renal = test system: ACHN renal
XF 498 CNS = test system: XF 498 CNS
SN12C renal = test system: SN12C renal
MOLT-4 leukemia = test system: MOLT-4 leukemia
SR leukemia = test system: SR leukemia

Measured: TGI

NC(=O)CC(N=Cc1nc(-c2ccccc2)oc1O)C(=O)O (stereo not given)
not listed: XF 498 CNS | SN12C renal | MOLT-4 leukemia | SR leukemia
> 100 µM: all other assays above

COc1cccc(N2C(=O)C3C4C=C5c6ccccc6N(c6ccccc6)C5(C3C2=O)[C@H]2C(=O)N(c3cccc(OC)c3)C(=O)[C@@H]42)c1 (stereo not given in full)
not listed: HCC-2998 colon | NCI-H522 lung | SK-MEL-28 melanoma | ACHN renal
> 100 µM: all other assays above
